Laboratory results published in PMC4674339 (European journal of medicinal chemistry, 2015).
“Also recorded” adds a separate entry of the source. Read-outs that look alike come from different tables or passages of the source.

How the values were obtained:
[1] = target: human platelet P2Y1 receptors (Homo sapiens, UniProt P47900); conditions: 3 μM ADP; human whole blood; N=3 unless stated
[2] = tested on: ADP induced human platelet aggregation; test: ADP-induced human platelet aggregation, 96-well microplate method; type: cell-based
[3] = target: T1, platelet P2X1 receptors (Homo sapiens, UniProt P51575); test: P2X1-mediated entry of extracellular Ca2+; type: cell-based
T1 sequence (P51575 1-399): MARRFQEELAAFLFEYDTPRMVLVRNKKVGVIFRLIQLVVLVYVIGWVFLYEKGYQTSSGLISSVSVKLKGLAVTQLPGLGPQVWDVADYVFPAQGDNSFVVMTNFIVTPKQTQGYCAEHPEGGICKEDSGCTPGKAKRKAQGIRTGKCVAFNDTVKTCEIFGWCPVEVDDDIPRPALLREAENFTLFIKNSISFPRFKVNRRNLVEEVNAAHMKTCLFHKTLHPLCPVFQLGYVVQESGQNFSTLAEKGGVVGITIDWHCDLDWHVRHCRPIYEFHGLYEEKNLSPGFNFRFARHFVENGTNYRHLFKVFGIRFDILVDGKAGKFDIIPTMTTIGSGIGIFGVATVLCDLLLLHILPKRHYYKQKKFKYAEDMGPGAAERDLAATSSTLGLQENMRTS

[4] = tested on: ADP induced human platelet aggregation; test: ADP induced human platelet aggregation by optical aggregometry; type: cell-based; conditions: 25 and 100 nM; pre-incubation 0, 5, 15 min; data not shown
[5] = tested on: GPIIb-IIIa and P-selectin on the surface of human platelets; test: Reversibility of inhibition of activation marker expression after dilution; type: cell-based; conditions: 30 min with 10 nM, then 100x dilution with platelet poor plasma; 20 μM ADP
[6] = target: human P2Y2 receptors (Homo sapiens, UniProt P41231); test: Effect on human P2Y2 receptors; conditions: data not shown
[7] = target: human P2Y4 receptors (Homo sapiens, UniProt P51582); test: Effect on human P2Y4 receptors; conditions: data not shown
[8] = target: human P2Y6 receptors (Homo sapiens, UniProt Q15077); test: Effect on human P2Y6 receptors; conditions: data not shown
Chain of human P2Y6 receptors (Q15077 whole entry): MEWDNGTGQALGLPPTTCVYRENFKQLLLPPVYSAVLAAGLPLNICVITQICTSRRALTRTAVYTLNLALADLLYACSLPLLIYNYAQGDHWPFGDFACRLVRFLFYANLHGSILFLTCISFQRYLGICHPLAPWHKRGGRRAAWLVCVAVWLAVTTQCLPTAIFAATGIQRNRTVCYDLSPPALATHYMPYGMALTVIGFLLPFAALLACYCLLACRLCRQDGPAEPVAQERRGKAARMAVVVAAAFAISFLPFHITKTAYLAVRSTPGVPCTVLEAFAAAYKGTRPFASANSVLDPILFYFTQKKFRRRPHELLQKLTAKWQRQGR

Chain of human P2Y2 receptors (P41231 whole entry): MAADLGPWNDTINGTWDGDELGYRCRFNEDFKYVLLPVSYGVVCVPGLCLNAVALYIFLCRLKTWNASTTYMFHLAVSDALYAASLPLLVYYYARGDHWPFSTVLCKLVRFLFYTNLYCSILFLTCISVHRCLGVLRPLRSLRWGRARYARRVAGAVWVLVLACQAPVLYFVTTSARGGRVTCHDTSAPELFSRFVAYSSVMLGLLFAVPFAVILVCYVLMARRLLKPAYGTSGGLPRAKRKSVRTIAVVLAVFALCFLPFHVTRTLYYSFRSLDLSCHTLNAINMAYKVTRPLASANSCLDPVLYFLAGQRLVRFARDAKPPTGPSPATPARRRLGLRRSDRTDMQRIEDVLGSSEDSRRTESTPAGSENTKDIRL
Chain of human platelet P2Y1 receptors (P47900 whole entry): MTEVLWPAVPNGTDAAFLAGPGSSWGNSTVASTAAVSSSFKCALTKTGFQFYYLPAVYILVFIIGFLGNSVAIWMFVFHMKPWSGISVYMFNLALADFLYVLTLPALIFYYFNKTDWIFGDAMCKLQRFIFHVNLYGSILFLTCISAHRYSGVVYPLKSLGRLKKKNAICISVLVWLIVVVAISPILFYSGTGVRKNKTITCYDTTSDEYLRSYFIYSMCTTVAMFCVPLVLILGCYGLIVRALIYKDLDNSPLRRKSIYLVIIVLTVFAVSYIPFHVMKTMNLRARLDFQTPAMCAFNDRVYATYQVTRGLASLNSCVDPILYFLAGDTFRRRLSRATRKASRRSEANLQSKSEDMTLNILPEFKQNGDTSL
Chain of human P2Y4 receptors (P51582 whole entry): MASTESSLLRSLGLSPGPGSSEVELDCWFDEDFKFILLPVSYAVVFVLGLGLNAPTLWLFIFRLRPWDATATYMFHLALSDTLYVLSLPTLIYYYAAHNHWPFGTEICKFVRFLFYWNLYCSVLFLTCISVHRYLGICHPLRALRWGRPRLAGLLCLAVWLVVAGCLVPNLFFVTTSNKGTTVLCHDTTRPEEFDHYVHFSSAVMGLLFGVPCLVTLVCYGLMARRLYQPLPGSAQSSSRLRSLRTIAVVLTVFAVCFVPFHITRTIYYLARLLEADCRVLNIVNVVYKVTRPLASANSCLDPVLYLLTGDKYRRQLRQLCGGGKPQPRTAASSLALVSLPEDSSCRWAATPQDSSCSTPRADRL

| SMILES | P2Y1 inhibition IC50±SEM [1] | IC50 ([2]; read-out: IC50, nM (95% Confidence Interval), no pre-incubation, 3 μM ADP) | IC50 ([2]; read-out: IC50, nM (95% Confidence Interval), pre-incubation with test compound, 5 μM ADP) | IC50 ([2]; read-out: IC50, nM (95% Confidence Interval), pre-incubation with test compound, 20 μM ADP) | P2X1 agonist activity [3] | Pre-incubation time for full pre-incubation effect [4] | Recovery of ability to express the activation markers after dilution [5] | Effect on human P2Y2 receptors [6] | Effect on human P2Y4 receptors [7] | Effect on human P2Y6 receptors [8] |
| --- | --- | --- | --- | --- | --- | --- | --- | --- | --- | --- |
| CSCCNc1nc(SCCC(F)(F)F)nc2c1ncn2[C@@H]1O[C@H](COP(=O)(O)OP(=O)(O)C(Cl)(Cl)P(=O)(O)O)[C@@H](O)[C@H]1O [Cangrelor] | Not inhibitor | – | – | – | – | – | – | – | – | – |
| CSc1nc(N)c2ncn([C@@H]3O[C@H](COP(=O)([S-])OP(=O)([O-])C(Cl)P(=O)([O-])OP(=O)([S-])OC[C@H]4O[C@@H](n5cnc6c(N)nc(SC)nc65)[C@H](O)[C@@H]4O)[C@@H](O)[C@H]3O)c2n1.[Na+].[Na+].[Na+].[Na+] (mixture of isomers) [Compound 5, P^1,P^4-di-(2-methylthio-5′-adenosine) P^1,P^4-dithio-P^2,P^3-chloromethylenetetraphosphate] | – | 36.1 nM | 11.6 nM | 27.6 nM | practically devoid of agonist activity; also recorded: did not have an effect | ≤ 15 min | 80–90% | did not have an effect | did not have an effect | did not have an effect |
